From PMC7719179, “Small molecule inhibition of Dynamin-dependent endocytosis targets multiple niche signals and impairs leukemia stem cells” (Nature Communications, 2020)
Where “and” joins values, the source holds several entries; their conditions need not be identical. Identical values can stand only once.

Legend:
[1] = system: IL-7R internalization in Ba/F3-IL7R cells; assay: Colocalization of IL-7R with clathrin and Rab5 after IL-7 stimulation (immunofluorescence); format: cell-based, murine; conditions: Ba/F3-IL7R cells after IL-7 stimulation, vs vehicle; result in words
Procedure: For dynamic analysis of IL-7R internalization, 1 × 10^5 Ba/F3-IL-7R cells were incubated with Phycoerythrin (PE)-conjugated α-CD127 (A7R34, BioLegend) for 30 min on ice, washed twice in cold PBS 1×, resuspended in serum-free Dulbecco’s modified Eagle’s medium (DMEM) and stimulated with 50 ng/mL IL-7 at 37 °C for the indicated intervals. Cells were fixed, permeabilized and incubated with either α-clathrin (ab21679, Abcam Australia) or α-Rab5 (ab18211, Abcam Australia), as previously described. Washed cells were incubated in permeabilization buffer with donkey Alexa Fluor 488-conjugated anti-rabbit secondary antibody (A-21206, Molecular Probes, Life Technologies) for 1 h on ice. Cells were washed, incubated with 1 ng/mL 4′,6-diamidino-2-phenylindole for 15 min, washed twice and mounted using Mowiol mounting medium (81381, Sigma-Aldrich Pty Ltd, Castle Hill, NSW). For each independent experiment, at least 50 different fields of view were collected for blinded quantification, for each time point. All images were acquired using a Nikon A1r Plus SI inverted confocal microscope (Nikon Australia, Rhodes, NSW) using a Plan Apo ×60 oil objective.

[2] = system: normal hematopoietic cells of WT mice; assay: Normal hematopoiesis in treated wild-type mice (thymus and bone marrow populations); format: in vivo
[3] = system: pStat5 and Hes1 in DN3a cells; assay: pStat5 and Hes1 in DN3a cells from treated Lmo2^Tg mice (flow cytometry); format: in vivo, mouse
Procedure: The synthesis of Dynole 34-2 and Dyngo 4a compounds was performed as previously described[32],[33] and was kindly provided by A. McCluskey. For in vitro assays, the specific Dynamin inhibitors Dynole 34-2, Dyngo 4a and Dynasore (#S8047, Selleckchem, Sapphire Bioscience Pty Ltd, Redfern NSW, Australia) were made as stock solutions in 100% dimethyl sulfoxide (DMSO), which were stored frozen. These compounds were diluted in 50% v/v DMSO/20 mM Tris-HCl pH 7.4 immediately prior to use. For in vivo administration, Dynole 34-2 was resuspended in pre-warmed HRC#5 (Pharmatek, San Diego CA, USA) 1 : 9 phosphate-buffered saline (PBS) 1× pH 7.4 at 37 °C, and sonicated 10 times for 30 s using a Bioruptor Plus (Biogenode) immediately prior to injection at 30 mg/kg, twice daily.
(§1) Phosphoflow analysis was performed as previously described. Briefly, 2 × 10^6 cells stained for surface markers were subsequently resuspended into PBS 1× + 4% v/v paraformaldehyde and incubated for 10 min at 4 °C for fixation. Fixed cells were washed twice using PBS 1×, then resuspended in pre-chilled at −20 °C Perm Buffer III (BD Pharmingen) and incubated 30 min at 4 °C for permeabilization. Cells were washed twice using PBS 1× and incubated overnight at 4 °C in PBS 1× + 2% v/v fetal calf serum (FCS) with Cell Signalling purified antibodies (Genesearch Pty Ltd, Arundel QLD, Australia) against pSTAT5 (Tyr694; #9359), phospho-p38 MAPK (Thr180/Tyr182; #4511), phospho-p44/42 (Erk1/2; #9102), phospho-S6 (Ser235/236; #4856) and phospho-Akt (Ser473; #9271) or isotype control. For intracellular HES1 detection, cells stained for surface markers were subsequently fixed and permeabilized using the BD Cytofix/Cytoperm^TM Kit and incubated overnight at 4 °C in PBS 1× + 2% v/v FCS with a purified antibody against HES1 (D6PU; #11988, Cell Signalling) or isotype control. After staining with primary antibodies for phosphoflow or intracellular detection, cells were incubated in permeabilization buffer with donkey Alexa Fluor 488-conjugated anti-rabbit secondary antibody (A-21206, lot #1910751, Molecular Probes, Invitrogen) or goat Alexa Fluor 546-conjugated anti-rabbit secondary antibody (A-11035, lot #1904467, Molecular Probes, Invitrogen) for 1 h on ice, and washed twice in PBS 1×. Fluorescence-activated cell sorting (FACS) analysis was performed using LSRII and LSR Fortessa cytometers, following the gating strategies described in Supplementary Fig. 11. Cell sorting was performed with a FACSAria or BD Influx.

GFP^hi DN3a thymocytes = assay: Cell cycle-restricted GFP^hi DN3a thymocytes in treated H2B-GFP;Lmo2^Tg mice; format: in vivo, mouse
[4] = system: pre-leukemic clones in DN3a cells; assay: Tcrβ gene rearrangement (clonality) in DN3a thymocytes of treated Lmo2^Tg mice; format: in vivo, mouse
Procedure: page 8: Supplementary Figure 4. […] therapy (VXL) or combination therapy was administered. Mean ± SEM, 2 -way ANOVA with Tukey’s […] poly-clonal Tcrβ gene rearrangements (pie charts) in these purified thymocytes (n = 5).

[5] = system: pSTAT5 and pERK in AML01-307 and AML18 patient-derived cells; assay: pSTAT5 and pERK in AML01-307 and AML18 cells harvested from treated recipients; format: in vivo, human
Procedure: as §1
Patient-derived xenograft models were established as previously described[97],[98]. […] For transplantation assays, 10^6 splenocytes harvested from successfully engrafted primary human ETP-ALL or T-ALL xenografts were injected into nonobese diabetic/severe combined immunodeficient (NOD.Cg-Prkdc^scid, also termed NOD/SCID) or NOD/SCID/Il2rg^tm1wjl/SzJ (NSG) mice[99]. Moreover, 1.5 × 10^6 cells splenocytes harvested from successfully engrafted patient-derived AML xenografts were injected into nonobese diabetic/severe immunodeficient (NOD.Cg-Rag1^tm1MomIl2rg^tm1wjl/SzJ, also termed NRG) mice expressing human IL-3, human GM-CSF and human SCF from the SGM3 triple transgene (NRGS)[100]. Engraftment into recipients was monitored by FACS analysis of peripheral blood as previously described. […] The in vivo efficacy of Dynole 34-2 was assessed 24 h after the last injection by FACS analysis and immunohistochemistry as described in Supplementary Methods. […]
assessed by flow cytometry. […]

CCCCCCCCNC(=O)C(C#N)=Cc1cn(CCCN(C)C)c2ccccc12 [Dynole 34-2, 2-Cyano-N-octyl-3-(1-(3-dimethylaminopropyl)-1H-indol-3-yl)-acrylamide]
colocalization of IL-7R and clathrin [1]: no significant difference | colocalization of IL-7R with Rab5 [1]: markedly reduced | Absolute numbers in the thymus: DN ([2]; Supplementary Figure 5a-b): 6020000 and 5580000 and 7110000 | Absolute numbers in the thymus: DN1 ([2]; Supplementary Figure 5a-b): 511000 and 452000 and 707000 | Absolute numbers in the thymus: DN2 ([2]; Supplementary Figure 5a-b): 47600 and 47100 and 78500 | Absolute numbers in the thymus: DN4 ([2]; Supplementary Figure 5a-b): 3000000 and 2950000 and 3730000 | Absolute numbers in the thymus: DP ([2]; Supplementary Figure 5a-b): 102000000 and 86500000 and 114000000 | Absolute numbers in the thymus: SP ([2]; Supplementary Figure 5a-b): 11300000 and 9900000 and 12100000 | Absolute numbers in the bone marrow: B cells ([2]; Supplementary Figure 5c-d): 6210000 and 6630000 and 5010000 | Absolute numbers in the bone marrow: MPP2 ([2]; Supplementary Figure 5c-d): 32800 and 19900 and 19000 | Absolute numbers in the bone marrow: MPP3 ([2]; Supplementary Figure 5c-d): 31000 and 22000 and 23000 | Absolute numbers in the bone marrow: MPP4 ([2]; Supplementary Figure 5c-d): 146000 and 93900 and 87200 | Absolute numbers in the bone marrow: Myeloid cells ([2]; Supplementary Figure 5c-d): 9680000 and 8860000 and 9360000 | Absolute numbers in the bone marrow: T cells ([2]; Supplementary Figure 5c-d): 1060000 and 911000 and 1020000 | effect on differentiated and progenitor cells in thymus and bone marrow ([2]; non-tumour-bearing mice, result in words): no detrimental effect | Hes1 (MFI) ([3]; DN3a cells from treated Lmo2^Tg mice): 22166 MFI and 17427 MFI and 19107 MFI and 15447 MFI | Hes1 (MFI) ([3]; GFPhi DN3a cells): 2603 MFI and 2496 MFI and 2588 MFI and 2307 MFI and 2171 MFI | pStat5 (MFI) ([3]; GFPhi DN3a cells): 1253 MFI and 1075 MFI and 1590 MFI and 1503 MFI and 1019 MFI | Hes1 (MFI) ([3]; GFPlo DN3a cells): 2885 MFI and 2559 MFI and 2562 MFI and 2408 MFI and 2317 MFI | pStat5 (MFI) ([3]; GFPlo DN3a cells): 1761 MFI and 1433 MFI and 1767 MFI and 1648 MFI and 1460 MFI | proportion of GFP^hi cells in DN3a thymocytes (GFP^hi DN3a thymocytes; H2B-GFP;Lmo2^Tg mice, result in words): did not affect | % GFPhi cells in DN3a population (GFP^hi DN3a thymocytes; mouse, in vivo): 1.5% and 3.3% and 0.2% and 1.3% | repopulation activity and leukemogenicity of GFP^hi DN3a thymocytes (GFP^hi DN3a thymocytes; result in words): significantly impaired | Clonality (%) for each sample: Oligoclonal ([4]; mouse, in vivo): 100% and 50% | clonality of DN3a cells by Tcrβ rearrangement ([4]; treated Lmo2^Tg mice, result in words): reduced monoclonality | pERK (MFI) in human CD45+ cells ([5]; PDX AML01-307): 2273 MFI and 2265 MFI and 2049 MFI | pSTAT5 (MFI) in human CD45+ cells ([5]; PDX AML01-307): 8952 MFI and 11167 MFI and 9167 MFI | pERK (MFI) in human CD45+ cells ([5]; PDX AML18): 5026 MFI and 5676 MFI and 5643 MFI and 5242 MFI and 5439 MFI and 6959 MFI | pSTAT5 (MFI) in human CD45+ cells ([5]; PDX AML18): 4926 MFI and 5695 MFI and 4653 MFI
